Calls of active or inactive are those of the source. No cut-off for these calls is given here.
The compounds below were run against T1, Uroporphyrinogen-III synthase (Homo sapiens) (UniProt P10746) (assay: Compound was tested for its activity as substrate of Uroporphyrinogen III synthase; Poor substrate).
T1 sequence (whole entry): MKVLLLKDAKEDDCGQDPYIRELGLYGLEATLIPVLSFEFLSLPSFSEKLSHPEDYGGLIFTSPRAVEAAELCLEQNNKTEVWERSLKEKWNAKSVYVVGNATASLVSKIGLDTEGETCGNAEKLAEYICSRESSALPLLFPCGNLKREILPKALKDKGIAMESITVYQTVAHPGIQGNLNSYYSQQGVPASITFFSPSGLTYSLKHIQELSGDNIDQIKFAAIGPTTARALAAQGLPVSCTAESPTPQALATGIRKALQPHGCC

Row | Activity | SMILES
1 | (+) | Cc1c(CCC(=O)O)c[nH]c1Cc1[nH]c(Cc2[nH]c(Cc3[nH]c(CO)c(CC(=O)O)c3CCC(=O)O)c(CC(=O)O)c2CCC(=O)O)c(CC(=O)O)c1CCC(=O)O

These compounds were tested against T1, Uroporphyrinogen-III synthase (Homo sapiens) (assay: Compound was tested for its activity as inhibitor of Uroporphyrinogen III synthase; Yes).

Row | SMILES | Activity
2 | Cc1[nH]c(Cc2[nH]c(Cc3[nH]c(Cc4[nH]c(CO)c(CC(=O)O)c4CCC(=O)O)c(CC(=O)O)c3CCC(=O)O)c(CC(=O)O)c2CCC(=O)O)c(CC(=O)O)c1CCC(=O)O | Active
3 | Cn1c(Cc2[nH]cc(CCC(=O)O)c2CC(=O)O)c(CCC(=O)O)c(CC(=O)O)c1Cc1[nH]c(Cc2[nH]c(CO)c(CC(=O)O)c2CCC(=O)O)c(CC(=O)O)c1CCC(=O)O | Active

Further lines, results first:

Row | Activity | SMILES
4 | Active | CC(O)c1[nH]c(Cc2[nH]c(Cc3[nH]c(Cc4[nH]cc(CCC(=O)O)c4CC(=O)O)c(CCC(=O)O)c3CC(=O)O)c(CCC(=O)O)c2CC(=O)O)c(CCC(=O)O)c1CC(=O)O (configuration not stated)
5 | Active | O=C(O)CCc1c(Br)[nH]c(Cc2[nH]c(Cc3[nH]c(Cc4[nH]c(CO)c(CC(=O)O)c4CCC(=O)O)c(CC(=O)O)c3CCC(=O)O)c(CC(=O)O)c2CCC(=O)O)c1CC(=O)O
6 | Active | N#Cc1[nH]c(Cc2[nH]c(Cc3[nH]c(Cc4[nH]c(CO)c(CC(=O)O)c4CCC(=O)O)c(CC(=O)O)c3CCC(=O)O)c(CC(=O)O)c2CCC(=O)O)c(CC(=O)O)c1CCC(=O)O
7 | Active | Cn1cc(CCC(=O)O)c(CC(=O)O)c1Cc1[nH]c(Cc2[nH]c(Cc3[nH]c(CO)c(CC(=O)O)c3CCC(=O)O)c(CC(=O)O)c2CCC(=O)O)c(CC(=O)O)c1CCC(=O)O

What follows are compounds tested against T1, Uroporphyrinogen-III synthase (Homo sapiens) (assay: Compound was tested for its activity as substrate of Uroporphyrinogen III synthase; Yes).

Row | SMILES | Activity
8 | O=C(O)CCc1c(CC(=O)O)c[nH]c1Cc1[nH]c(Cc2[nH]c(Cc3[nH]c(CO)c(CC(=O)O)c3CCC(=O)O)c(CC(=O)O)c2CCC(=O)O)c(CC(=O)O)c1CCC(=O)O | Active
9 | O=C(O)CCCc1c[nH]c(Cc2[nH]c(Cc3[nH]c(Cc4[nH]c(CO)c(CC(=O)O)c4CCC(=O)O)c(CC(=O)O)c3CCC(=O)O)c(CC(=O)O)c2CCC(=O)O)c1CC(=O)O | Active
10 | CCc1c[nH]c(Cc2[nH]c(Cc3[nH]c(Cc4[nH]c(CO)c(CC(=O)O)c4CCC(=O)O)c(CC(=O)O)c3CCC(=O)O)c(CC(=O)O)c2CCC(=O)O)c1CC(=O)O | Active

Further lines, results first:

Row | Activity | SMILES
11 | Active | O=C(O)CCc1c[nH]c(Cc2[nH]c(Cc3[nH]c(Cc4[nH]c(CO)c(CC(=O)O)c4CCC(=O)O)c(CC(=O)O)c3CCC(=O)O)c(CC(=O)O)c2CCC(=O)O)c1CC(=O)O
12 | Active | O=C(O)CCc1c[nH]c(Cc2[nH]c(Cc3[nH]c(Cc4[nH]c(CO)c(CC(=O)O)c4CCC(=O)O)c(CC(=O)O)c3CCC(=O)O)c(CCC(=O)O)c2CC(=O)O)c1CC(=O)O
